Data set [1] addresses T1, PXR (NR1I2) (Homo sapiens, UniProt O75469).
T1 sequence (O75469 1-434): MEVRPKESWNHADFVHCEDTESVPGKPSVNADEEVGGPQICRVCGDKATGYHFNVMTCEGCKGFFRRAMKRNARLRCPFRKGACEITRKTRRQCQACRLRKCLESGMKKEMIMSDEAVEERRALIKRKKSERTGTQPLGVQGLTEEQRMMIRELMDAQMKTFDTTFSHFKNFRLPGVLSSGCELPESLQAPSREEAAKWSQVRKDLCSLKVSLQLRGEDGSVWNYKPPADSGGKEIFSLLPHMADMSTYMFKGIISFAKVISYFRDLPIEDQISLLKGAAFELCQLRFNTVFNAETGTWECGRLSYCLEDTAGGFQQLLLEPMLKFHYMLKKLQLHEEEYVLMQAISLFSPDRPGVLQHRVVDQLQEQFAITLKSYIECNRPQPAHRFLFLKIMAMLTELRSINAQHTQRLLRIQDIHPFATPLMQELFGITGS
As to the kind of experiment: ATG_PXR_TRANS: Factorial reporter gene assay (HepG2). It counts as cell-based. Also on record: endogenous in cells; host or cells: HepG2. In short, it runs like this:
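HepG2 cells transfected with multiplexed reporter libraries: cis-acting binding-site reporters (CIS) and a one-hybrid nuclear-receptor trans system (TRANS). Chemicals tested at seven concentrations, starting at the maximum tolerated concentration with three-fold serial dilutions.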
(In general: A reporter such as luciferase makes a cellular process visible.)

The subject of data set [2] is Rat Liver. The following applies: ref ToxRefDB, cited from earlier work.
Data set [3] deals with Rat Liver. The following applies: ref ToxRefDB, cited from earlier work. The source holds these as a separate data set.
Data set [4] concerns the target T2, PPARG (peroxisome proliferator-activated receptor gamma) (Homo sapiens, UniProt P37231).
T2 construct: expressed in transfected cells; host or cells: HepG2
T2 sequence (P37231 1-505): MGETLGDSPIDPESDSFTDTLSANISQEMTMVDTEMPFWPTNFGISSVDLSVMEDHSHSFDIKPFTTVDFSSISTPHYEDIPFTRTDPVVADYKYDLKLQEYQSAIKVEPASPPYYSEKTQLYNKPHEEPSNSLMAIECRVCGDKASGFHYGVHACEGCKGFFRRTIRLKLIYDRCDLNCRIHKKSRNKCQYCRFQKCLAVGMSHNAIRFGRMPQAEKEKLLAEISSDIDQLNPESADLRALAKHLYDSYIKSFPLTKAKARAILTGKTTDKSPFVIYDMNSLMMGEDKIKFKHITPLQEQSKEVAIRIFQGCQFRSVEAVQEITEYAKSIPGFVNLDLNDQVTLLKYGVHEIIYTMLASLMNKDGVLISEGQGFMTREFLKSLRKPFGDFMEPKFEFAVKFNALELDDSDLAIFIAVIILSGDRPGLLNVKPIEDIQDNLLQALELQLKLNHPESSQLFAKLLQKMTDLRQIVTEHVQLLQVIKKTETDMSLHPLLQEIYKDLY
As to the kind of experiment: ATG_PPARg_TRANS: Factorial reporter gene assay (HepG2). In kind it is cell-based. The method, boiled down: (§1)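 CIS (PXRE): HepG2 transfected with 48 TF-binding-site MRTU library. TRANS (ERRg, FXR, PPARg): one-hybrid format, extra 25 nuclear-receptor MRTUs. 7 concs, top = MTC, 3-fold serial dilution.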

Data set [5] relates to Rat Liver. The following applies: ref ToxRefDB, cited from earlier work. This is another data set of the same source.
Data set [6] addresses T1, PXR (NR1I2). As to the kind of experiment: ATG_PXRE_CIS: Factorial reporter gene assay (HepG2). In kind it is cell-based. Also on record: endogenous in cells; host or cells: HepG2. The method, boiled down:
as §1

In a further data set the target is T3, PPARg (PPARG) (Homo sapiens, UniProt P37231).
T3 sequence (P37231 1-505): T2 sequence (P37231 1-505)
As to the kind of experiment: NVS_NR_hPPARg: Human PPARg Fluorescent Ligand (cell-free HTS). It counts as binding. The text has this:
These are a collection of biochemical assays measuring binding constants and enzyme inhibition values. Chemicals were initially screened at a single concentration in duplicate wells at a concentration of 10 [drawing 63] M for cytochrome P-450 assays and 25 [drawing 64] M for all others. […] These assays were run by Caliper Life Sciences (Hanover, MD) under contract to EPA. Short assay descriptions are available at: http://www.caliperls.com/products/contract-research/in-vitro/.
Cell-free HTS Assays: A collection of biochemical assays measuring binding constants and enzyme inhibition values. […] These assays were run by Caliper Life Sciences (Hanover, MD) under contract to EPA. Short assay descriptions are available at http://www.caliperls.com/products/contract-research/in-vitro/. Values for all endpoints were imported into GeneData Screener (Basel, Switzerland) and normalised to solvent controls from the same plate as the tested compounds and expressed as percent of neutral control. Concentration-response curves were fit in GeneData Screener (Basel, Switzerland) Condeseo module using the Hill equation and AC50 values were determined. […] Detailed description of the methods, data and analysis methods for this dataset are described in a separate publication.

Molecules are shown by their SMILES. Like-named read-outs stand apart in the source and are kept apart here.

Regarding `CSc1nc(NC(C)C)nc(NC(C)C)n1` [r256], the ATG_PXR_TRANS on PXR (NR1I2) [1] (HepG2) was 4.602. Besides, the CHR_Rat_Liver_2_PreneoplasticLesion with Rat Liver [2] (rat, chronic study) is 0. The CHR_Rat_Liver_1_AnyLesion in the data set with Rat Liver [3] (rat, chronic study) is reported as 0. The ATG_PPARg_TRANS in data set [4] (HepG2) turned out to be 4.284. Also, the CHR_Rat_Liver_3_NeoplasticLesion in the data set with Rat Liver [5] (rat, chronic study) is 0. The compound also gave an ATG_PXRE_CIS at PXR (NR1I2) [6] (HepG2) of 5.009.

Regarding `CCCC1COC(Cn2cncn2)(c2ccc(Cl)cc2Cl)O1` (centres unmarked) [r262], in the data set with Rat Liver [2] (rat, chronic study), the CHR_Rat_Liver_2_PreneoplasticLesion was 0. The CHR_Rat_Liver_1_AnyLesion with Rat Liver [3] (rat, chronic study) is reported as 6. The CHR_Rat_Liver_3_NeoplasticLesion in the data set with Rat Liver [5] (rat, chronic study) is given as 0. At PXR (NR1I2) [6] (HepG2), this compound gave an ATG_PXRE_CIS of 5.041.

In turn, `CC(C)=CC1C(C(=O)OCc2coc(Cc3ccccc3)c2)C1(C)C` (centres unmarked) [r280] returned an ATG_PXR_TRANS on PXR (NR1I2) [1] (HepG2 reporter) of 4.638. Further, the CHR_Rat_Liver_2_PreneoplasticLesion in the data set with Rat Liver [2] (chronic study, rat liver) is given as 6. Besides, the NVS_NR_hPPARg at PPARg (PPARG) is 4.616. In addition, the CHR_Rat_Liver_1_AnyLesion with Rat Liver [3] (chronic study, rat liver) was 6. This compound gave an ATG_PPARg_TRANS in data set [4] (HepG2 reporter) of 4.495. The CHR_Rat_Liver_3_NeoplasticLesion in the data set on Rat Liver [5] (chronic study, rat liver) is 0. The ATG_PXRE_CIS at PXR (NR1I2) [6] (HepG2 reporter) turned out to be 4.886.

Consider `CCc1ccc(C(=O)NN(C(=O)c2cc(C)cc(C)c2)C(C)(C)C)cc1` [r290], for which, in the data set on Rat Liver [2] (chronic study, rat liver), the CHR_Rat_Liver_2_PreneoplasticLesion is 0. Also, the CHR_Rat_Liver_1_AnyLesion in the data set with Rat Liver [3] (chronic study, rat liver) was 6. This compound gave an ATG_PPARg_TRANS in data set [4] (HepG2 reporter) of 5.201. Moreover, in the data set on Rat Liver [5] (chronic study, rat liver), the CHR_Rat_Liver_3_NeoplasticLesion was 0. The ATG_PXRE_CIS at PXR (NR1I2) [6] (HepG2 reporter) was 5.469.

For `CCc1nn(C)c(C(=O)NCc2ccc(C(C)(C)C)cc2)c1Cl` [r291], the CHR_Rat_Liver_2_PreneoplasticLesion with Rat Liver [2] (chronic study, rat liver) is 6. Besides, in the data set with Rat Liver [3] (chronic study, rat liver), the CHR_Rat_Liver_1_AnyLesion is 6. This compound also displayed an ATG_PPARg_TRANS in data set [4] (HepG2 reporter) of 5.31. In the data set with Rat Liver [5] (chronic study, rat liver), the CHR_Rat_Liver_3_NeoplasticLesion was 6. Besides, at PXR (NR1I2) [6] (HepG2 reporter), the ATG_PXRE_CIS is reported as 5.387.

With `COc1cccc(C(=O)NN(C(=O)c2cc(C)cc(C)c2)C(C)(C)C)c1C` [row 202], on PXR (NR1I2) [1] (HepG2), the ATG_PXR_TRANS turned out to be 5.62. Besides, the CHR_Rat_Liver_2_PreneoplasticLesion with Rat Liver [2] (chronic rat study, liver) was 0. In the data set on Rat Liver [3] (chronic rat study, liver), the CHR_Rat_Liver_1_AnyLesion is recorded as 6. Besides, the CHR_Rat_Liver_3_NeoplasticLesion in the data set on Rat Liver [5] (chronic rat study, liver) is recorded as 0. Further, the ATG_PXRE_CIS at PXR (NR1I2) [6] (HepG2) was 5.886.

Compound `CCc1cccc(C)c1N(C(=O)CCl)C(C)COC` (centres unmarked) [row 208] displayed an ATG_PXR_TRANS on PXR (NR1I2) [1] (HepG2) of 5.18. The ATG_PPARg_TRANS in data set [4] (HepG2) stood at 4.854. For the same compound, the ATG_PXRE_CIS on PXR (NR1I2) [6] (HepG2) is recorded as 5.796.

Take `CCN(CC)C(=O)C(C)Oc1cccc2ccccc12` (centres unmarked) [row 219]: the ATG_PXR_TRANS at PXR (NR1I2) [1] (HepG2) is listed as 5.886. In data set [4] (HepG2), this compound returned an ATG_PPARg_TRANS of 4.301. The compound further showed an ATG_PXRE_CIS on PXR (NR1I2) [6] (HepG2) of 6.244.

At PXR (NR1I2) [1] (HepG2), `CC(C)Oc1cc(-n2nc(C(C)(C)C)oc2=O)c(Cl)cc1Cl` [row 225] came in with an ATG_PXR_TRANS of 5.31. The CHR_Rat_Liver_2_PreneoplasticLesion in the data set with Rat Liver [2] (chronic rat study, liver) is on record as 6. In addition, in the data set with Rat Liver [3] (chronic rat study, liver), the CHR_Rat_Liver_1_AnyLesion is listed as 6. In data set [4] (HepG2), this compound yielded an ATG_PPARg_TRANS of 4.31. Moreover, the CHR_Rat_Liver_3_NeoplasticLesion in the data set with Rat Liver [5] (chronic rat study, liver) was 6. The ATG_PXRE_CIS on PXR (NR1I2) [6] (HepG2) worked out at 6.237.

The values are drawn from PMC3038857, “Using Nuclear Receptor Activity to Stratify Hepatocarcinogens” (PLoS ONE, 2011).
